Assay results as given in US12377069B2, “Compounds, compositions, methods of using, and methods for preparing compounds” (UNIVERSITY OF LOUISVILLE RESEARCH FOUNDATION, INC., priority 2018, dated 2025).

Columns and labels:
[1] = tested on: colon cancer cell line (SW480); experiment: Proliferation assay with 5FU; conditions: Homo sapiens
Cyp1A1 [2] = experiment: Cyp1A1 enzyme activity in colon and liver microsomes of treated mice; type: in vivo, mouse; conditions: 1 week; for Cyp1A1 activity in liver compared to oral UroA/UAS03: i.p. daily
Protocol: Measurements of Cyp1A1 enzyme activity (Ex vivo): Mice were treated with Vehicle or UroA or UAS03, BNF or FICZ daily for one week at indicated concentration either through oral or i.p. route. After one week, mice were euthanized and the colon and liver tissues were dissected. Microsomes from these tissues were prepared using the following procedure (SINGH et al., (2013) “Evaluation of memory enhancing clinically available standardized extract of Bacopa monniera on P-glycoprotein and cytochrome P450 3A in Sprague-Dawley rats” PloS one, Vol. 8, Article e72517). For hepatic microsomes, liver was first perfused with 0.9% sodium chloride solution and excised out. Adhering blood and saline was removed by blotting on tissue paper and tissue was homogenized in tissue homogenization buffer (50 mM Tris-HCl, pH 7.4 with 250 mM sucrose). Homogenate was centrifuged at 10,000×g for 30 minutes at 4° C. supernatant obtained was further centrifuged at 105,000×g for 60 minutes at 4° C. The pellet was washed with homogenization buffer and centrifuged again at 105,000×g for 60 minutes at 4° C. The pellet was suspended in homogenization buffer and used for protein and CYP assay. For intestinal microsome preparation, intestine was removed and washed with 0.9% sodium chloride. The intestine was longitudinally cut open to expose mucosal layer and mucosa was scrapped with help of glass slide. The scraped tissue was collected in homogenization buffer (50 mM Tris-HCl buffer containing glycerol (20% v/v), protease inhibitor (1%) and heparin (3 U/ml)). This suspended mucosa was homogenized and centrifuged at 10,000×g for 20 minutes at 4° C. Supernatant obtained was further centrifuged at 105,000×g for 60 minutes at 4° C. The pellet was washed with buffer and centrifuged again at 105,000×g for 60 minutes at 4° C. The pellet was suspended homogenization buffer and used for protein and CYP enzymes assays.
Ethoxyresorufin-O-deethylase (EROD) assay: The microsomal proteins (0.5 mg) were mixed with 200 μL Tris buffer (0.1 M, pH 7.4) containing ethoxyresorufin (0.01 mM). To start reaction, NADPH (0.1 mM) was added and incubated at 37° C. for 10 min. After 10 min, reaction was terminated by adding equal volume of acetonitrile and reaction mixture was centrifuged at 13000×g for 10 min at 4° C. Supernatant was used to determine resorufin by measuring fluorescence (Ex. 530 nm, Em. 580 nm). Pure resorufin (Sigma Aldrich) was used to generate standard curve.
P450-Glo Cyp1A1 luminiscence assay: The above microsomes (20 μg) were used for P450-Glo Cyp1A1 luminiscence assays as per manufacturer's instructions.

[3] = tested on: mouse bone marrow derived macrophages (BMDMs); experiment: LPS-induced IL-6 and TNF-α in BMDM; type: cell-based; conditions: LPS 50 ng/mL, six hours; compared UroA
Protocol: Measurements of IL-6 and TNF-α in BMDM: BMDM were plated in 96 (10,000 cells/well) and 12 wells (0.1×10^6 cells/well) plate for ELISA and RNA isolation. To evaluate the anti-inflammatory properties, BMDMs were stimulated with E. coli-derived lipopolysaccharides (LPS; 055:B5; Sigma) at 50 ng/mL concentration for six hours alone or in combination with UroA or UAS03 at indicated concentrations (0.01, 0.1, 1, 10, 25, 50 μM) in quadruplicates. For cytokine production via ELISA, the supernatant was collected and centrifuged at 10,000×g for 10 min at 4° C. to pellet down any cell and cytokines were quantified using IL-6 and TNF-α specific ELISA kit (Biolegend) following manufacturer's instruction.
Screening for anti-inflammatory activities: Mouse bone marrow derived macrophages (BMDM) were plated in 96 wells plate for ELISA. To evaluate the anti-inflammatory properties, BMDMs were stimulated with E. coli-derived lipopolysaccharides (LPS; 055:B5; Sigma) at 50 ng/mL concentration for six hours alone or in combination with compounds at indicated concentrations in quadruplicates. For cytokine production via ELISA, the supernatant was collected and centrifuged at 12,000 rpm for 10 min at 4° C. to pellet down any cell and cytokines were quantified using IL-6 and TNF-α specific ELISA kit (Biolegend) following manufacturer's instruction. LPS induced IL-6 or TNF-α considered as 100%.

Cyp1A1 [4] = experiment: Cyp1A1 expression and enzyme activity in vitro (P450-Glo, EROD); type: cell-based, human; conditions: HT29, 24 h; P450-Glo and EROD
Protocol: Measurment of Cyp1A1 enzyme activities in vitro. EROD assay: HT-29 cells (15,000 cells/well) treated with vehicle, UroA and UAS03 (24 hrs), were rinsed with HBSS buffer, and then fresh HBSS buffer was added along with 5 μM of 7-ethoxyresorufin. Cells were further incubated at 37° C. for 1 h. After the incubation time, fluorescence (Exc. 530 nm, Em. 580 nm) was measured and product (resorufin) formed was calculated from calibration standard and normalized with protein concentration.
P450-Glo Cyp1A1 luminiscence assay: HT29 cells (25,000 cells/well) were plated in 48 well plate. Cell were then treated with UroA (0.1, 1, 10, 25 and 50 μM) or UAS03 (0.1, 1, 10, 25 and 50 μM) or FICZ (0.1, 1, 10, 25 and 50 nM) for 24 hrs. After treatment, cells were washed to remove any residual drugs, and fresh medium containing Cyp1A1 substrate (as per protocol provided with kit Cat. #V8751; Promega) for 3 hr. After incubation, 25 μl of culture medium was removed from each well and transferred to a 96-well white opaque plate and 25 μl of luciferin detection reagent was added to initiate the luminescence reaction and plate was incubated at room temperature for 20 min. After incubation, luminescence was recorded in luminometer. The data reported as fold change over vehicle treatment.

AhR = AhR reporter (XRE-luciferase) assay; type: cell-based, human; conditions: 6 h, over vehicle
Protocol: AhR Reporter assay: AhR-reported assay was performed using AhR Reporter Assay system (Indio Biosciences). The AhR Reporter cells (expressing luciferase under AhR promoter) as well as positive control MeBio (AhR ligand) compound were provided in the kit. The cells were treated with Vehicle or UroA or UAS03 or ellagic acid or MeBio for 6 hr and luminoscence was measured according to manufacture's instructions.

[5] = SW480, read-out: cell viability
[6] = i.p., UroA/UAS03 5 mg/kg/day, FICZ 1 μg/mouse/day

O=c1[nH]cc(F)c(=O)[nH]1 [5FU, 5-Fluoro-1H,3H-pyrimidine-2,4-dione, reference compound]
viability at 3.12 µM [1, 5]: 90% | viability at 25 µM [1, 5]: 63% | inhibition at 100 µM ([1]; SW480, read-out: maximum inhibition of cancer cell growth): ≤ 60%

O=c1cc(-c2ccccc2)oc2ccc3ccccc3c12 [BNF, beta-naphthoflavone, reference compound]
Cyp1A1 activity in liver compared to oral UroA/UAS03 (Cyp1A1 [2]): more Cyp1A1 activity in liver

O=C1C(=O)c2cc(O)ccc2-c2ccc(O)cc21 [PKL4]
anti-inflammatory activities (LPS-induced IL-6 and TNF-α), analogue screening [3]: effective anti-inflammatory compounds

COc1ccc2c(c1)C(=O)C(=O)c1cc(OC)ccc1-2 [PKL 3]
anti-inflammatory activities (LPS-induced IL-6 and TNF-α), analogue screening [3]: effective anti-inflammatory compounds

O=Cc1c2c(cc3c1=Nc1ccccc1-3)=Nc1ccccc1-2 [FICZ, 6-Formylindolo[3,2-b]carbazole, reference compound]
Cyp1A1 activity in liver compared to oral UroA/UAS03 (Cyp1A1 [2]): more Cyp1A1 activity in liver | Cyp1A1 activity increase in colons (Cyp1A1 [2]; [6]): ~5 fold | Cyp1A1 enzyme activity induction in liver (Cyp1A1 [2]; [6]): ~30 fold | Cyp1A1 enzyme activity in colon epithelial cells (Cyp1A1 [4]): increased Cyp1A1 activity even at nano molar concentrations

MeBio
induction of luciferase activity (AhR activation) (AhR): ~15 fold

Clc1cc2c(cc1Cl)Oc1cc(Cl)c(Cl)cc1O2 [TCDD, 2,3,7,8-tetrachlorodibenzo-p-dioxin, reference compound]
Cyp1A1 enzyme activity in colon epithelial cells (Cyp1A1 [4]): increased Cyp1A1 activity even at nano molar concentrations

O=C1/C(=N/C23CC4CC(CC(C4)C2)C3)c2cc(O)ccc2-c2ccc(O)cc21 [PKL 17]
anti-inflammatory activities (LPS-induced IL-6 and TNF-α), analogue screening [3]: effective anti-inflammatory compounds
